Experimental data from the Kinase Knowledgebase extract (Sharma et al. 2016).
Values after ≈ are worked out from the molar mass of the structure shown. Values joined by “and” are separate entries in the source; they are usually repeats but may differ in a detail not shown here. Equal entries are not always repeated.

These molecules were tested against EGFR (UniProt P00533).
EGFR, sequence (P00533 whole entry, looked up): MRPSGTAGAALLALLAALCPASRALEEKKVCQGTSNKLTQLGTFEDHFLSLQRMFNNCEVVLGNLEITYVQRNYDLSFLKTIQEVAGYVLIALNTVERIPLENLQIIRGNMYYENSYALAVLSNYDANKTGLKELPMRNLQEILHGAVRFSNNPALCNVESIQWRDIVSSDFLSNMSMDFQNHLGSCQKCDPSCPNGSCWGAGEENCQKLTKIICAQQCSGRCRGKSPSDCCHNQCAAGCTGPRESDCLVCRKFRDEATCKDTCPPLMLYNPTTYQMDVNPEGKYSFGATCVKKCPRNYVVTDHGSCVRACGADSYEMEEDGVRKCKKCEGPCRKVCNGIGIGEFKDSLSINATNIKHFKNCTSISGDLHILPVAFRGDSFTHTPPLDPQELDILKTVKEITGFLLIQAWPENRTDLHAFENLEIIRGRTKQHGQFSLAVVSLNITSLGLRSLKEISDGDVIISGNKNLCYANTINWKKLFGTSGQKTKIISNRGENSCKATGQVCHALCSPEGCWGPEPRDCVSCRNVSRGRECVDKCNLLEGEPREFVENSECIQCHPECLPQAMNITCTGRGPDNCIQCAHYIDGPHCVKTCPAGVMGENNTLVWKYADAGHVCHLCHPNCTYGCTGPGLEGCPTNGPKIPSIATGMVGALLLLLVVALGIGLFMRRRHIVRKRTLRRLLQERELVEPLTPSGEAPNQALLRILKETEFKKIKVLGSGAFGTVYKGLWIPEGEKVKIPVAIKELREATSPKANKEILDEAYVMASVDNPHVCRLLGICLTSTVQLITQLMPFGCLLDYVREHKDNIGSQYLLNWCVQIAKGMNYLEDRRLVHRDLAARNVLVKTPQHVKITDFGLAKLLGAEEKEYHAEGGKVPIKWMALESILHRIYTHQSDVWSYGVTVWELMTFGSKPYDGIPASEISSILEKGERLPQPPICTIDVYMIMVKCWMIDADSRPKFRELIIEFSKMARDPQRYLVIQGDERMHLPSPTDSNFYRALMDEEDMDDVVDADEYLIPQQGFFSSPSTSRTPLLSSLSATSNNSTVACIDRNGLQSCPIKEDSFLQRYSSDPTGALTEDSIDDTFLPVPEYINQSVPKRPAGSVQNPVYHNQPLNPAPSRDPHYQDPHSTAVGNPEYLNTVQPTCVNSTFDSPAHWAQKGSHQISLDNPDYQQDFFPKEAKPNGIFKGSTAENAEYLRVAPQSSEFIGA

| SMILES | IC50 |
| --- | --- |
| COc1cc(Nc2ncnc(N(C)c3cccc(Cl)c3)n2)cc(OC)c1OC | < 0.4 µg/mL |
| COc1ccc(CNc2nc3ccccc3n2-c2ncnc(Nc3cccc(C(=O)O)c3)n2)cc1 | > 4.5 µg/mL |
| CN(c1cccc(Cl)c1)c1ncnc(Nc2cc(C(C)(C)C)on2)n1 | > 4.5 µg/mL |
| COc1cccc(Nc2ncccc2-c2ncnc(Nc3cc(OC)c(OC)c(OC)c3)n2)c1 | 3.5 to 4.5 µg/mL (≈ 7.6 to 9.77 µM) |
| COc1cc(Nc2ncnc(-c3cccnc3Nc3ccc(C(F)(F)F)cc3)n2)cc(OC)c1OC | > 4.5 µg/mL |
| COc1cc(Nc2ncnc(Nc3ncnc4[nH]cnc34)n2)cc(OC)c1OC | > 4.5 µg/mL |
| COc1cc(Nc2ncnc(-c3cccs3)n2)cc(OC)c1OC | > 4.5 µg/mL |
| CC(=O)NCc1ccc(Nc2ncnc(Nc3cc(-c4ccco4)n[nH]3)n2)cc1 | 0.4 to 2.4 µg/mL (≈ 1.02 to 6.15 µM) |
| O=c1[nH]c2ccccc2n1-c1ncnc(Nc2ccccc2[N+](=O)[O-])n1 | > 4.5 µg/mL |
| N#Cc1cccc(Nc2ncnc(-n3c(=O)[nH]c4ccccc43)n2)c1 | > 4.5 µg/mL |
| CCOc1ccc(Nc2ncnc(N(C)c3cccc(Cl)c3)n2)cc1OCC | < 0.4 µg/mL |
| COc1ccc(Nc2ncnc(NCCCN3CCCCC3C)n2)cc1OC (stereo unspecified) | > 4.5 µg/mL |
| CCOc1cccc(Nc2ncnc(N3CCCc4cc(C)ccc43)n2)c1 | < 0.4 µg/mL |
| COc1cc(Nc2ncnc(-c3cccnc3NC(C)C)n2)ccc1NC(=O)CCCN1CCNCC1 | > 4.5 µg/mL |
| COc1ccc(N(C)c2ncnc(Nc3cc(OC)c(OC)c(OC)c3)n2)cc1 | 0.4 to 2.4 µg/mL (≈ 1.01 to 6.04 µM) |
| Cc1ccc2c(c1)CCCN2c1ncnc(Nc2ccc3ncsc3c2)n1 | 0.4 to 2.4 µg/mL (≈ 1.07 to 6.41 µM) |
| COc1cc(Nc2ncnc(-n3c(NCc4ccc([N+](=O)[O-])cc4)nc4ccccc43)n2)cc(OC)c1OC | > 4.5 µg/mL |
| COc1ccc(Nc2ncnc(NCCCN3CCN(C)CC3)n2)cc1OC | > 4.5 µg/mL |
| COc1cc(Nc2ncnc(Nc3ccc(O)nc3)n2)cc(OC)c1OC | 0.4 to 2.4 µg/mL (≈ 1.08 to 6.48 µM) |
| COc1cc(Nc2ncnc(Nc3cccc(C(=O)O)c3)n2)cc(OC)c1OC | < 0.4 µg/mL |
| COc1ccc(Nc2ncnc(Nc3ccc(OC)c(OC)c3)n2)cc1OC | > 4.5 µg/mL |
| COc1cc(Nc2ncnc(-c3cccnc3NC3CCCc4ccccc43)n2)cc(OC)c1OC (stereo unspecified) | 3.5 to 4.5 µg/mL (≈ 7.22 to 9.29 µM) |

| SMILES | IC50 |
| --- | --- |
| CCC(Nc1nc2ccccc2n1-c1ncnc(Nc2cc(OC)c(OC)c(OC)c2)n1)c1ccccc1 (stereo unspecified) | 0.4 to 2.4 µg/mL (≈ 0.782 to 4.69 µM) |
| CCN(CC)CCNc1ncnc(N(C)c2cccc(Cl)c2)n1 | 0.4 to 2.4 µg/mL (≈ 1.19 to 7.17 µM) |
| COc1cc(OC)cc(-c2nnc(Nc3ncnc(Nc4cc(OC)c(OC)c(OC)c4)n3)[nH]2)c1 | > 4.5 µg/mL |
| O=[N+]([O-])c1cccc(Nc2ncnc(-c3cccs3)n2)c1 | > 4.5 µg/mL |
| COC(=O)c1ccc(-c2cc(Nc3ncnc(NC4=NC(=O)CS4)n3)[nH]n2)cc1 | 0.4 to 2.4 µg/mL (≈ 0.975 to 5.85 µM) |
| COc1cccc(Nc2ncnc(Nc3cc(-c4ccccc4)n[nH]3)n2)c1 | 0.4 to 2.4 µg/mL (≈ 1.11 to 6.68 µM) |
| CNc1ncnc(Nc2cc(OC)c(OC)c(OC)c2)n1 | > 4.5 µg/mL |
| NS(=O)(=O)c1ccc(Nc2ncnc(-n3c(=O)[nH]c4ccccc43)n2)cc1 | > 4.5 µg/mL |
| COC(=O)c1ccc(-c2cc(Nc3ncnc(NCc4ccco4)n3)[nH]n2)cc1 | > 4.5 µg/mL |
| CC(=O)NS(=O)(=O)c1ccc(Nc2ncnc(N(C)c3cccc(Cl)c3)n2)cc1 | < 0.4 µg/mL |
| CN(c1cccc(Cl)c1)c1ncnc(Nc2ccc3c(cnn3Cc3ccccc3)c2)n1 | 0.4 to 2.4 µg/mL (≈ 0.905 to 5.43 µM) |
| COc1cc(Nc2ncnc(Nc3cc(-c4ccccc4)nn3C)n2)cc(OC)c1OC | 3.5 to 4.5 µg/mL (≈ 8.07 to 10.4 µM) |
| NC(=O)c1cccc(Nc2ncnc(-c3cccs3)n2)c1 | > 4.5 µg/mL |
| COc1ccc([C@H](C)Nc2nc3ccccc3n2-c2ncnc(Nc3cc(OC)c(OC)c(OC)c3)n2)cc1 | > 4.5 µg/mL |
| COc1cc(Nc2ncnc(-n3c(Nc4ccc(OC(F)(F)F)cc4)nc4ccccc43)n2)cc(OC)c1OC | 2.4 to 3.5 µg/mL (≈ 4.34 to 6.32 µM) |
| COc1cc(CNc2ncnc(Nc3cc(-c4ccco4)n[nH]3)n2)cc(OC)c1OC | > 4.5 µg/mL |
| COc1cc(Nc2ncnc(-n3cc(C)c4ccccc43)n2)cc(OC)c1OC | > 4.5 µg/mL |
| CN(c1cccc(Cl)c1)c1ncnc(Nc2ccc3c(cnn3C)c2)n1 | < 0.4 µg/mL |
| c1ccc(Nc2ncccc2-c2ncnc(Nc3cccc(Cn4ccnn4)c3)n2)cc1 | > 4.5 µg/mL |
| CC(C)Nc1ncccc1-c1ncnc(Nc2cccc(CC(=O)O)c2)n1 | > 4.5 µg/mL |
| COC(=O)c1ccc(-c2cc(Nc3ncnc(Nc4cccc(CC(=O)O)c4)n3)[nH]n2)cc1 | 0.4 to 2.4 µg/mL (≈ 0.898 to 5.39 µM) |
| CC(C)(C)OC(=O)NCCCNc1ncnc(-c2ccccc2)n1 | > 4.5 µg/mL |

| SMILES | IC50 |
| --- | --- |
| CCOc1ccc(Nc2ncnc(Nc3ccc(OCc4ccccc4)cc3)n2)cc1OCC | 0.4 to 2.4 µg/mL (≈ 0.874 to 5.25 µM) |
| CCOC(=O)CNc1ncnc(N2CCCc3cc(C)ccc32)n1 | > 4.5 µg/mL |
| Clc1ccccc1Nc1ncnc(-n2cccc2)n1 | > 4.5 µg/mL |
| CC(C)Nc1ncccc1-c1ncnc(Nc2ccc(C(N)=O)cc2)n1 | > 4.5 µg/mL |
| COc1cc(Nc2ncnc(Nc3ccc4c(c3)Cc3ccccc3-4)n2)cc(OC)c1OC | > 4.5 µg/mL |
| COc1cc(Nc2ncnc(-c3cccnc3NC(C)c3cccc4ccccc34)n2)cc(OC)c1OC (stereo unspecified) | > 4.5 µg/mL |
| COc1ccc(Nc2ncnc(Nc3ccc(N(C)C)cc3)n2)cc1OC | > 4.5 µg/mL |
| CCN(CC)CCCNc1ccc(-c2ncnc(Nc3cc(OC)c(OC)c(OC)c3)n2)cn1 | > 4.5 µg/mL |
| COc1cc(Nc2ncnc(-n3c(Nc4cccc(C)c4)nc4ccccc43)n2)cc(OC)c1OC | > 4.5 µg/mL |
| Nc1nc2ccccc2n1-c1ncnc(Nc2ccc(S(N)(=O)=O)cc2)n1 | > 4.5 µg/mL |
| COc1cc(Nc2ncnc(-n3c(=O)sc4cc(Br)ccc43)n2)cc(OC)c1OC | > 4.5 µg/mL |
| COc1cc(Nc2ncnc(-c3ccccc3)n2)cc(OC)c1OC | > 4.5 µg/mL |
| COc1ccc(CCNc2ncnc(N3CCCc4cc(C)ccc43)n2)cc1OC | > 4.5 µg/mL |
| COc1cc(Nc2ncnc(-n3c(NCc4ccc(Br)cc4)nc4ccccc43)n2)cc(OC)c1OC | > 4.5 µg/mL |
| COc1ccc(Nc2nc3ccccc3n2-c2ncnc(Nc3cc(OC)c(OC)c(OC)c3)n2)cc1 | > 4.5 µg/mL |
| CN(c1ccc2c(cnn2Cc2ccccc2)c1)c1ncnc(Nc2cccc(Cn3ccnn3)c2)n1 | < 0.4 µg/mL |
| COc1cc(Nc2ncnc(-n3c(NCc4cccc(Br)c4)nc4ccccc43)n2)cc(OC)c1OC | 3.5 to 4.5 µg/mL (≈ 6.22 to 8 µM) |
| Cc1cccc(Nc2ncnc(Nc3cccc(Br)c3)n2)c1 | < 0.4 µg/mL |
| COc1ccc(Nc2ncnc(N(C)c3cccc(Cl)c3)n2)cc1 | < 0.4 µg/mL |
| COc1cc(Nc2ncnc(-c3cccnc3NC3CCCCC3)n2)cc(OC)c1OC | > 4.5 µg/mL |
| COc1cc(Nc2ncnc(N3CCCCC3)n2)cc(OC)c1OC | > 4.5 µg/mL |
| Nc1ncnc(Nc2ccc(F)cc2F)n1 | > 4.5 µg/mL |

| SMILES | IC50 |
| --- | --- |
| COc1ccc2[nH]cc(CCNc3ncnc(Nc4ccc(OC)c(OC)c4)n3)c2c1 | > 4.5 µg/mL |
| COc1cc(Nc2ncnc(-n3c(N)nc4ccccc43)n2)ccc1OCCn1ccnn1 | > 4.5 µg/mL |
| COc1cc(Nc2ncnc(N3CCC(O)CC3)n2)cc(OC)c1OC | > 4.5 µg/mL |
| COc1ccc(Nc2nc3ccccc3n2-c2ncnc(Nc3cc(OC)c(OC)c(OC)c3)n2)c(C)c1 | > 4.5 µg/mL |
| COC(=O)c1ccc(Nc2ncnc(Nc3cc(-c4ccco4)n[nH]3)n2)cc1 | > 4.5 µg/mL |
| O=S(=O)(O)c1cccc(Nc2ncnc(Nc3cc(-c4ccco4)[nH]n3)n2)c1 | < 0.4 µg/mL |
| COc1cc(Nc2ncnc(-n3c(NCc4cccc(C)c4)nc4ccccc43)n2)cc(OC)c1OC | > 4.5 µg/mL |
| COc1cc(Nc2ncnc(-n3c(Nc4ccc5[nH]ccc5c4)nc4ccccc43)n2)cc(OC)c1OC | 3.5 to 4.5 µg/mL (≈ 6.88 to 8.85 µM) |
| COc1ccc(-c2ncnc(Nc3cc(OC)c(OC)c(OC)c3)n2)cc1OC | 3.5 to 4.5 µg/mL (≈ 8.78 to 11.3 µM) |
| CC1CCc2ccccc2N1c1ncnc(N2c3ccccc3CCC2C)n1 (stereo unspecified) | 2.4 to 3.5 µg/mL (≈ 6.46 to 9.42 µM) |
| CN(c1cccc(Cl)c1)c1ncnc(Nc2cc(-c3ccco3)[nH]n2)n1 | < 0.4 µg/mL |
| COc1ccc(Oc2ncnc(Nc3cc(OC)c(OC)c(OC)c3)n2)cc1 | 2.4 to 3.5 µg/mL (≈ 6.24 to 9.11 µM) |
| COc1cc(Nc2ncnc(Nc3ccc4c(cnn4C)c3)n2)cc(OC)c1OC | 0.4 to 2.4 µg/mL (≈ 0.982 to 5.89 µM) |
| O=C(O)Cc1cccc(Nc2ncnc(Nc3cccc(Br)c3)n2)c1 | < 0.4 µg/mL |
| Fc1ccccc1Nc1ncnc(-c2ccccc2)n1 | > 4.5 µg/mL |
| COc1cc(Nc2ncnc(-n3c(NC(C)=O)nc4ccccc43)n2)cc(OC)c1OC | > 4.5 µg/mL |
| O=c1[nH]c2ccccc2n1-c1ncnc(Nc2ccc3ccccc3c2)n1 | > 4.5 µg/mL |
| c1coc(-c2cc(Nc3ncnc(Nc4ccc(-c5csnn5)cc4)n3)n[nH]2)c1 | 0.4 to 2.4 µg/mL (≈ 0.991 to 5.95 µM) |
| COc1ccc(Nc2ncnc(NCC(=O)c3ccccc3)n2)cc1OC | 2.4 to 3.5 µg/mL (≈ 6.57 to 9.58 µM) |
| COc1cc(Nc2ncnc(Nc3ccccc3)n2)cc(OC)c1OC | 0.4 to 2.4 µg/mL (≈ 1.13 to 6.79 µM) |
| COc1cc(Nc2ncnc(Nc3ccc(C(C)C)cc3)n2)cc(OC)c1OC | > 4.5 µg/mL |
| COc1cc(Nc2ncnc(-n3c(N)nc4ccccc43)n2)cc(OC)c1OCCN1CCOCC1 | > 4.5 µg/mL |

| SMILES | IC50 |
| --- | --- |
| COc1cc(Nc2ncnc(-c3cccnc3Nc3ccc4c(c3)CCC4)n2)cc(OC)c1OC | > 4.5 µg/mL |
| COc1cc(Nc2ncnc(-n3c(Nc4ccc(C(C)C)cc4)nc4ccccc43)n2)cc(OC)c1OC | > 4.5 µg/mL |
| COc1cc(Nc2ncnc(-c3ccc(N(C)C)nc3)n2)cc(OC)c1OC | > 4.5 µg/mL |
| COc1cc(Nc2ncnc(-n3c(NC4CCc5ccccc54)nc4ccccc43)n2)cc(OC)c1OC (stereo unspecified) | 2.4 to 3.5 µg/mL (≈ 4.71 to 6.87 µM) |
| CC(C)(C)OC(=O)Nc1ccc(Nc2ncnc(Nc3ccc(OCc4ccccc4)cc3)n2)cc1 | > 4.5 µg/mL |
| CC(C)(C)OC(=O)Nc1ccc(Nc2ncnc(-c3ccccc3)n2)cc1 | > 4.5 µg/mL |
| O=c1[nH]c2ccccc2n1-c1ncnc(Nc2ccc(Cl)cc2)n1 | > 4.5 µg/mL |
| CN(c1cccc(Cl)c1)c1ncnc(Nc2cccc(CC(=O)O)c2)n1 | < 0.4 µg/mL |
| COc1ccc(Nc2ncnc(N(C)c3ccc(F)cc3F)n2)cc1OC | < 0.4 µg/mL |
| COc1cc(Nc2ncnc(-n3ccc4cccnc43)n2)cc(OC)c1OC | > 4.5 µg/mL |
| COc1cc(Nc2ncnc(Nc3cc(C)nn3C)n2)cc(OC)c1OC | 3.5 to 4.5 µg/mL and > 4.5 µg/mL |
| COc1cc(Nc2ncnc(Nc3cccc(CC(=O)O)c3)n2)cc(OC)c1OC | < 0.4 µg/mL |
| COc1ccc(Nc2ncnc(-n3c(N)nc4ccccc43)n2)cc1OC | > 4.5 µg/mL |
| COc1cc(Nc2ncnc(-n3c(N)nc4cc(Cl)ccc43)n2)cc(OC)c1OC.COc1cc(Nc2ncnc(-n3c(N)nc4ccc(Cl)cc43)n2)cc(OC)c1OC | > 4.5 µg/mL |
| COc1cc(Nc2ncnc(-n3c(Nc4ccc5[nH]ncc5c4)nc4ccccc43)n2)cc(OC)c1OC | 3.5 to 4.5 µg/mL (≈ 6.87 to 8.83 µM) |
| COc1cc(Nc2ncnc(-n3c(NC4c5ccccc5CC4O)nc4ccccc43)n2)cc(OC)c1OC (stereo unspecified) | > 4.5 µg/mL |
| COc1ccccc1Nc1nc2ccccc2n1-c1ncnc(Nc2cc(OC)c(OC)c(OC)c2)n1 | > 4.5 µg/mL |
| COc1cccc(Nc2ncnc(-n3c(N)nc4ccccc43)n2)c1 | 2.4 to 3.5 µg/mL (≈ 7.2 to 10.5 µM) |
